Measurements taken from article PMC10198183 (Frontiers in drug discovery, 2022).
In brackets after ≈: the same amount, converted by molar mass. Read-outs that look alike come from different tables or passages of the source.

Key:
C. glabrata = assay: Broth microdilution susceptibility test (CLSI M27-A4), C. glabrata; type: cell-based; details: RPMI 1640, 30 °C, 24–48 h, mean of triplicate; for MIC: read-out: MIC75 C. glabrata
Method: (§1) Broth microdilution susceptibility test: The minimum inhibitory concentrations (MIC75) were determined by the broth microdilution method according to the Clinical and Laboratory Standards Institute (CLSI) M27-A4 standard ([CLSI, 2017])). Briefly, a suspension of C. albicans or C. glabrata culture (~0.5–2.5 × 10^3 cells/ml) was resuspended in RPMI 1640 media (Fisher Catalog number 11875093). The resuspended culture was further incubated with 100 μl of two-fold serially diluted test compounds (100–0.8 μM and 1.0 μM to 7 nM) at 30 °C for 24–48 h. Positive and negative control (wells without antifungal agents and wells without yeast) were conducted. Increased optical density (OD) corresponds to the Candida growth and was quantified by comparison with untreated Candida control samples. The MIC75 of test compounds was determined visually and spectrophotometrically (OD600) after 24–48 h. Experiments were run in triplicate, and data was reported as a mean.

human Cyp3A4 = human Cyp3A4 (Homo sapiens, UniProt P08684); details: for IC50: read-out: CYP 3A4 IC50, human Cyp3A4 supersomes, 2 μM midazolam, 30 min at 37°C
C. albicans = assay: Broth microdilution susceptibility test (CLSI M27-A4), C. albicans; type: cell-based; details: RPMI 1640, 30 °C, 24–48 h, mean of triplicate; for MIC: read-out: MIC75 C. albicans
Method: as §1

Chain of human Cyp3A4 (P08684 2-503 limits assumed): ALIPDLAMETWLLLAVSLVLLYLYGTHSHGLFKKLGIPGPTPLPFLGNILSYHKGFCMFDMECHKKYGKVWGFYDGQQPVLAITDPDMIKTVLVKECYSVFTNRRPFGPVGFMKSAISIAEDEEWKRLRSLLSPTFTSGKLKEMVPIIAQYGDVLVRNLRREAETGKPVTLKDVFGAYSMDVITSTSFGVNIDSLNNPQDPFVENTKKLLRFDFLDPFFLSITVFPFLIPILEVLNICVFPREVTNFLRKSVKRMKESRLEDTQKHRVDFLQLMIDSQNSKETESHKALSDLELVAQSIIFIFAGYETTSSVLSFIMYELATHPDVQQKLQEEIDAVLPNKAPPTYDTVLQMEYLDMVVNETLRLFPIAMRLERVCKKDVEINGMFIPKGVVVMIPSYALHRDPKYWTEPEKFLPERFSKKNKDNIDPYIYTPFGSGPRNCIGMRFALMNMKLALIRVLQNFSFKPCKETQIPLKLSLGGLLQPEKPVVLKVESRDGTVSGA

MIC (C. glabrata) | MIC (C. albicans) | Compound | further results
0.8 µM (≈ 0.475 µg/mL) | 0.8 µM (≈ 0.475 µg/mL) | O=S(=O)(C1CC1)N1CCN(c2ccc(OCC3COC(Cn4ccnc4)(c4ccc(Cl)cc4Cl)O3)cc2)CC1 (stereo not shown) [Entry 3e] | 
0.5 µM (≈ 0.291 µg/mL) | 0.125 µM (≈ 0.0727 µg/mL) | CCS(=O)(=O)N1CCN(c2ccc(OC[C@@H]3CO[C@@](Cn4ccnc4)(c4ccc(Cl)cc4Cl)O3)cc2)CC1 [Entry 3b] | 
0.5 µM (≈ 0.266 µg/mL) |  | CC(=O)N1CCN(c2ccc(OC[C@H]3CO[C@](Cn4ccnc4)(c4ccc(Cl)cc4Cl)O3)cc2)CC1 (racemic) [Entry 2, (±)-Ketoconazole, reference compound] | MIC (C. glabrata; Nakaseomyces glabratus): 0.25 µM (≈ 0.133 µg/mL); MIC (C. albicans; Candida albicans): 0.25 µM (≈ 0.133 µg/mL)
 | 0.125 µM (≈ 0.0709 µg/mL) | CS(=O)(=O)N1CCN(c2ccc(OC[C@@H]3CO[C@@](Cn4ccnc4)(c4ccc(Cl)cc4Cl)O3)cc2)CC1 [Entry 3a] | 
6.25 µM (≈ 4.03 µg/mL) | 0.8 µM (≈ 0.516 µg/mL) | CS(=O)(=O)CS(=O)(=O)N1CCN(c2ccc(OC[C@@H]3CO[C@@](Cn4ccnc4)(c4ccc(Cl)cc4Cl)O3)cc2)CC1 [Entry 3h] | 
1.6 µM (≈ 0.994 µg/mL) | 0.8 µM (≈ 0.497 µg/mL) | O=S(=O)(N1CCN(c2ccc(OC[C@@H]3CO[C@@](Cn4ccnc4)(c4ccc(Cl)cc4Cl)O3)cc2)CC1)C(F)(F)F [Entry 3i] | 
0.5 µM (≈ 0.296 µg/mL) | 0.25 µM (≈ 0.148 µg/mL) | N#CCS(=O)(=O)N1CCN(c2ccc(OC[C@@H]3CO[C@@](Cn4ccnc4)(c4ccc(Cl)cc4Cl)O3)cc2)CC1 [Entry 3g] | 

The next lines start with the compound.

Compound | MIC (C. glabrata) | MIC (C. albicans) | further results
O=S(=O)(CC(F)F)N1CCN(c2ccc(OC[C@@H]3CO[C@@](Cn4ccnc4)(c4ccc(Cl)cc4Cl)O3)cc2)CC1 [Entry 3l] | 0.25 µM (≈ 0.154 µg/mL) | 0.062 µM (≈ 0.0383 µg/mL) | improvement in selectivity (Cyp3A4 versus C. albicans) relative to (±)-Ketoconazole (2) (human Cyp3A4; 3l versus 2): 5 fold; window between Cyp3A4 inhibition and activity against C. albicans (human Cyp3A4; Cyp3A4 IC50 versus C. albicans MIC75): 2.6 fold; IC50 (human Cyp3A4): 162 nM
O=S(=O)(CC(F)(F)F)N1CCN(c2ccc(OC[C@@H]3CO[C@@](Cn4ccnc4)(c4ccc(Cl)cc4Cl)O3)cc2)CC1 [Entry 3j] | 0.8 µM (≈ 0.508 µg/mL) | 1.6 µM (≈ 1.02 µg/mL) | IC50 (human Cyp3A4): 450 nM
CC(C)S(=O)(=O)N1CCN(c2ccc(OC[C@@H]3CO[C@@](Cn4ccnc4)(c4ccc(Cl)cc4Cl)O3)cc2)CC1 [Entry 3d] |  |  | MIC75 C. glabrata (C. glabrata): complete loss of in vitro antifungal activity and N.E.; MIC75 C. albicans (C. albicans): complete loss of in vitro antifungal activity and N.E.
CCCS(=O)(=O)N1CCN(c2ccc(OC[C@@H]3CO[C@@](Cn4ccnc4)(c4ccc(Cl)cc4Cl)O3)cc2)CC1 [Entry 3c] | 0.5 µM (≈ 0.298 µg/mL) | 0.125 µM (≈ 0.0744 µg/mL) | IC50 (human Cyp3A4): 75.6 nM
C[C@@H]1[C@H](O)[C@@H](C)/C=C/C=C/C=C/C=C/C=C/C=C/C=C/[C@H](O[C@@H]2O[C@H](C)[C@@H](O)[C@H](N)[C@@H]2O)C[C@@H]2O[C@](O)(C[C@@H](O)C[C@@H](O)[C@H](O)CC[C@@H](O)C[C@@H](O)CC(=O)O[C@H]1C)C[C@H](O)[C@H]2C(=O)O [Amphotericin B, reference compound] |  |  | MIC (C. glabrata; Nakaseomyces glabratus): 0.25 µM (≈ 0.231 µg/mL); MIC (C. albicans; Candida albicans): 0.25 µM (≈ 0.231 µg/mL)
CC(=O)N1CCN(c2ccc(OC[C@@H]3CO[C@@](Cn4ccnc4)(c4ccc(Cl)cc4Cl)O3)cc2)CC1 [Entry 4, (2S, 4R)-Ketoconazole, reference compound] |  |  | MIC (C. glabrata; Nakaseomyces glabratus): 0.5 µM (≈ 0.266 µg/mL); MIC (C. albicans; Candida albicans): 0.125 µM (≈ 0.0664 µg/mL)
O=S(=O)(CCC(F)(F)F)N1CCN(c2ccc(OC[C@@H]3CO[C@@](Cn4ccnc4)(c4ccc(Cl)cc4Cl)O3)cc2)CC1 [Entry 3k] |  | 1.6 µM (≈ 1.04 µg/mL) | MIC75 C. glabrata (C. glabrata): no effect and N.E.; IC50 (human Cyp3A4): 249 nM
